Source: the supplement of paper PMC13380429

Key:
Conditions in all cases: 72 h
U2OS [1] = experiment: relative viability EC50 (midpoint between 100% and the lowest measured viability); higher = less toxic
Calu-3 [2] = experiment: as above
HepG2 [3] = experiment: as above
Caco-2 [4] = experiment: as above
Vero E6 [5] = experiment: as above
U2OS [6] = experiment: drug sensitivity score (DSS) for viability; higher = more toxic; extreme values may be limits of the assay
Calu-3 [7] = experiment: as above
HepG2 [8] = experiment: as above
Caco-2 [9] = experiment: as above
Vero E6 [10] = experiment: as above
U2OS [11] = experiment: cell viability relative to DMSO; higher = less toxic
Calu-3 [12] = experiment: as above
HepG2 [13] = experiment: as above
Caco-2 [14] = experiment: as above
Vero E6 [15] = experiment: as above

SMILES | relative viability EC50 (U2OS [1]) | relative viability EC50 (Calu-3 [2]) | relative viability EC50 (HepG2 [3]) | relative viability EC50 (Caco-2 [4]) | relative viability EC50 (Vero E6 [5]) | drug sensitivity score (U2OS [6]) | drug sensitivity score (Calu-3 [7]) | drug sensitivity score (HepG2 [8]) | drug sensitivity score (Caco-2 [9]) | drug sensitivity score (Vero E6 [10]) | cell viability (U2OS [11]; 1 nM) | cell viability (U2OS [11]; 10 nM) | cell viability (U2OS [11]; 100 nM) | cell viability (U2OS [11]; 1000 nM) | cell viability (U2OS [11]; 10000 nM) | cell viability (Calu-3 [12]; 1 nM) | cell viability (Calu-3 [12]; 10 nM) | cell viability (Calu-3 [12]; 100 nM) | cell viability (Calu-3 [12]; 1000 nM) | cell viability (Calu-3 [12]; 10000 nM) | cell viability (HepG2 [13]; 1 nM) | cell viability (HepG2 [13]; 10 nM) | cell viability (HepG2 [13]; 100 nM) | cell viability (HepG2 [13]; 1000 nM) | cell viability (HepG2 [13]; 10000 nM) | cell viability (Caco-2 [14]; 1 nM) | cell viability (Caco-2 [14]; 10 nM) | cell viability (Caco-2 [14]; 100 nM) | cell viability (Caco-2 [14]; 1000 nM) | cell viability (Caco-2 [14]; 10000 nM) | cell viability (Vero E6 [15]; 1 nM) | cell viability (Vero E6 [15]; 10 nM) | cell viability (Vero E6 [15]; 100 nM) | cell viability (Vero E6 [15]; 1000 nM) | cell viability (Vero E6 [15]; 10000 nM)
CCN(CC)CCOC(=O)C1(c2ccc([N+](=O)[O-])cc2)CCCC1 [nitrocaramiphen] | > 10 µM | > 10 µM | > 10 µM | > 10 µM | > 10 µM | 0 | 0 | 0 | 0 | 0 | 95.5% | 102% | 95.4% | 94.8% | 98.5% | 90% | 95.7% | 96.5% | 94% | 98.2% | 107% | 97.2% | 103% | 108% | 102% | 103% | 90.1% | 98.3% | 106% | 101% | 104% | 92.9% | 97.2% | 102% | 106%
CCn1cc(C(=O)O)c(=O)c2cc(F)c(N3CCNCC3)cc21 [norfloxacin] | > 10 µM | > 10 µM | > 10 µM | > 10 µM | > 10 µM | 0 | 0 | 0 | 0 | 0 | 100% | 99.1% | 97.9% | 104% | 105% | 93.9% | 83.9% | 92.2% | 91.3% | 104% | 100% | 98.5% | 102% | 100% | 101% | 104% | 93.9% | 96.1% | 106% | 103% | 93.1% | 99.3% | 94.8% | 94.1% | 104%
CCCCCCCC/C=C\CCCCCCCC(=O)NCc1ccc(O)c(OC)c1 [olvanil] | > 10 µM | > 10 µM | > 10 µM | > 10 µM | > 10 µM | 0 | 0 | 0 | 0 | 0 | 102% | 98.1% | 95.8% | 95.9% | 91% | 100% | 95% | 101% | 118% | 94.4% | 96.3% | 97.2% | 104% | 94.3% | 96.5% | 97.2% | 100% | 98% | 94.3% | 100% | 102% | 101% | 95.5% | 103% | 101%
O=C(Nc1cc(Cl)cc(Cl)c1O)c1c(O)c(Cl)cc(Cl)c1Cl [oxyclozanide] | > 10 µM | > 10 µM | > 10 µM | > 10 µM | > 10 µM | 0 | 0 | 0 | 0 | 0 | 98.7% | 97.6% | 97.8% | 100% | 97.2% | 107% | 90.4% | 104% | 88.7% | 103% | 105% | 99.2% | 96.4% | 98% | 101% | 98.4% | 106% | 91.7% | 91.9% | 97.4% | 95% | 98.6% | 96.2% | 101% | 95.4%
CN1CCCN=C1COC(=O)C(O)(c1ccccc1)C1CCCCC1 (stereo not given) [oxyphencyclimine] | > 10 µM | > 10 µM | > 10 µM | > 10 µM | > 10 µM | 0 | 0 | 0 | 0 | 0 | 97.2% | 101% | 94.6% | 97.3% | 93% | 93% | 102% | 102% | 98.8% | 94.7% | 93.6% | 102% | 105% | 91.3% | 92.2% | 99.8% | 99.3% | 100% | 106% | 102% | 103% | 104% | 100% | 91.7% | 91.8%
Cc1ccc(-c2cn3c4c(sc3n2)CCCC4)cc1 [pifithrin-cyclic] | > 10 µM | > 10 µM | > 10 µM | > 10 µM | > 10 µM | 0 | 0 | 0 | 0 | 0 | 102% | 101% | 101% | 102% | 98.5% | 98.3% | 105% | 100% | 109% | 107% | 105% | 99.1% | 105% | 108% | 91.7% | 104% | 93% | 91.2% | 105% | 92.9% | 119% | 96.5% | 109% | 102% | 97.1%
OC[C@H]1O[C@@H](Oc2cc(O)cc(/C=C/c3ccc(O)cc3)c2)[C@H](O)[C@@H](O)[C@@H]1O [polydatin] | > 10 µM | > 10 µM | > 10 µM | > 10 µM | > 10 µM | 0 | 0 | 0 | 0 | 0 | 101% | 103% | 102% | 99.4% | 98.2% | 100% | 101% | 96.9% | 103% | 102% | 98.1% | 93.9% | 93.2% | 96.6% | 96.8% | 99.4% | 97.2% | 97.4% | 101% | 96.3% | 101% | 104% | 95.7% | 100% | 99%
CC(C)N(CCNC(=O)CN1CCCC1=O)C(C)C [pramiracetam] | > 10 µM | > 10 µM | > 10 µM | > 10 µM | > 10 µM | 0 | 0 | 0 | 0 | 0 | 98.8% | 93.2% | 103% | 95.6% | 105% | 95.7% | 103% | 109% | 100% | 103% | 101% | 100% | 97.6% | 107% | 104% | 94.6% | 93.6% | 114% | 96.4% | 98.9% | 93.9% | 97% | 94.4% | 99.7% | 108%
CCCC(C(=O)OCCN(CC)CC)(c1ccccc1)c1ccccc1 [proadifen] | > 10 µM | > 10 µM | > 10 µM | > 10 µM | > 10 µM | 0 | 0 | 0 | 0 | 0 | 93% | 97.9% | 99.1% | 102% | 98.5% | 99.3% | 93.1% | 101% | 105% | 99.6% | 101% | 100% | 92.6% | 95% | 88.1% | 89.8% | 101% | 102% | 101% | 87.9% | 97.9% | 96% | 98.4% | 97.3% | 99.8%
CCN(CC)CCNC(=O)c1ccc(N)cc1 [procainamide] | > 10 µM | > 10 µM | > 10 µM | > 10 µM | > 10 µM | 0 | 0 | 0 | 0 | 0 | 94.9% | 97.9% | 98.8% | 101% | 100% | 105% | 110% | 93.5% | 99.5% | 98.7% | 99.9% | 115% | 107% | 102% | 106% | 88.5% | 97.6% | 96.1% | 105% | 101% | 95.9% | 97.4% | 92.6% | 94.1% | 106%
COc1ccc2nc3cc(Cl)ccc3c(Nc3cc(CN4CCCC4)c(O)c(CN4CCCC4)c3)c2n1 [pyronaridine] | 3.34 µM | 3.54 µM | 2.38 µM | 1.87 µM | 2.93 µM | 3.6 | 2.5 | 7.1 | 5.9 | 6 | 98.3% | 104% | 97.2% | 102% | 31.7% | 102% | 111% | 95.5% | 104% | 46.4% | 105% | 87% | 99.8% | 90.5% | -0.1% | 99.2% | 95.8% | 100% | 87.9% | 29.4% | 104% | 102% | 108% | 96.7% | 0.1%
